Tests used:
[1] = system: human 20S immunoproteasome subunit beta-5i (versus Mycobacterium tuberculosis 20S open gate mutant); experiment: Selectivity index, ratio of IC50 for human 20S immunoproteasome subunit beta-5i to IC50 for Mycobacterium tuberculosis 20S open gate mutant; format: toxicity; settings: read-out: Ratio IC50
[2] = system: human 20S constitutive proteasome subunit beta-5c (versus Mycobacterium tuberculosis 20S open gate mutant); experiment: Selectivity index, ratio of IC50 for human 20S constitutive proteasome subunit beta-5c to IC50 for Mycobacterium tuberculosis 20S open gate mutant; format: toxicity; settings: read-out: Ratio IC50
[3] = Inhibition of Mycobacterium tuberculosis 20S proteasome open gate mutant expressed in Escherichia coli BL21(DE3) using Suc-LLVY-AMC as substrate measured over 1.5 to 2 hrs by plate reader assay

O=C1CCc2cccc(c2)Oc2ccc(cc2)C[C@@H](C(=O)NCc2ccccc2F)NC(=O)[C@H](CC(=O)N2CCC[C@@H]2c2ccccc2)N1
selectivity ratio [1]: > 13600
selectivity ratio [2]: > 13600
IC50 [3]: 7.4 nM

O=C1CCCCCCCCOC[C@@H](C(=O)NCc2ccccc2F)NC(=O)[C@H](CC(=O)N2CCC[C@@H]2c2ccccc2)N1
selectivity ratio [1]: > 14000
selectivity ratio [2]: > 14000
IC50 [3]: 7 nM

O=C(N[C@H]1Cc2cccc(c2)Oc2ccc(cc2)C[C@@H](C(=O)NCc2ccccc2F)NC(=O)[C@H](CC(=O)N2CCC[C@@H]2c2ccccc2)NC1=O)c1ccccc1
selectivity ratio [1]: > 119
selectivity ratio [2]: > 119
IC50 [3]: 840 nM

O=C1CCc2cccc(c2)OCCCC[C@@H](C(=O)NCc2ccccc2F)NC(=O)[C@H](CC(=O)N2CCC[C@@H]2c2ccccc2)N1
selectivity ratio [1]: > 14000
selectivity ratio [2]: > 14000
IC50 [3]: 7 nM

O=C1CCc2cccc(c2)OCCCC[C@@H](C(=O)NCc2ccccc2F)NC(=O)[C@H](CC(=O)N2CCC[C@@H]2C2CC2)N1
selectivity ratio [1]: 11
selectivity ratio [2]: 11
IC50 [3]: 7 nM

O=C1CCc2cccc(c2)OCCCC[C@@H](C(=O)NCc2ccccc2F)NC(=O)[C@H](CC(=O)N2CCC[C@H]2C2CC2)N1
selectivity ratio [1]: 11
selectivity ratio [2]: 19
IC50 [3]: 79 nM

O=C1CCc2cccc(c2)OCCCC[C@@H](C(=O)NCc2ccccc2F)NC(=O)[C@H](CCN2CCC[C@@H]2c2ccccc2)N1
selectivity ratio [1]: 31
selectivity ratio [2]: 57
IC50 [3]: 1500 nM

CCN(CC)C(=O)C[C@H](NC(=O)CCc1ccccc1)C(=O)N[C@@H](Cc1ccc(F)cc1)C(=O)NCc1cccc2ccccc12
selectivity ratio [1]: 3650
selectivity ratio [2]: 4670
IC50 [3]: 15 nM

Cc1ccc(CNC(=O)[C@@H]2Cc3cccc(c3)Oc3cccc(c3)C[C@H](N)C(=O)N[C@@H](CCc3ccccc3)C(=O)N2)cc1
IC50 [3]: > 100000 nM

CC(=O)N[C@H]1Cc2cccc(c2)Oc2ccc(cc2)C[C@@H](C(=O)NCc2ccccc2F)NC(=O)[C@H](CC(=O)N2CCC[C@@H]2c2ccccc2)NC1=O
selectivity ratio [1]: > 594
selectivity ratio [2]: > 594
IC50 [3]: 170 nM

O=C1CCCCCCCCCC[C@@H](C(=O)NCc2cccc3ccccc23)NC(=O)[C@H](CC(=O)N2CCCC2)N1
IC50 [3]: 150 nM

O=C1CCc2cccc(c2)Oc2ccc(cc2)C[C@@H](C(=O)NCc2ccccc2F)NC(=O)[C@H](CC(=O)N2CCCC2)N1
selectivity ratio [1]: 108
IC50 [3]: 200 nM

O=C1CCCCCCCCC[C@@H](C(=O)NCc2cccc3ccccc23)NC(=O)[C@H](CC(=O)N2CCCC2)N1
IC50 [3]: 710 nM

O=C1N[C@@H](CC(=O)N2CCCC2)C(=O)N[C@H](C(=O)NCc2cccc3ccccc23)CCCCCCCCCC1Cc1ccccc1 (some centres undefined)
IC50 [3]: 5000 nM

O=C1CCCCCCCCOC[C@@H](C(=O)NCc2cccc3ccccc23)NC(=O)[C@H](CC(=O)N2CCCC2)N1
IC50 [3]: 100 nM
